Here are results for one molecule from patent US9573899B2, “USP7 inhibitor compounds and methods of use” (Genentech, Inc., priority 2015, dated 2017).

pIC50: −log10 of the molar value.

For test [1], the system named is MCF-7 p53 WT breast cancer cells. Description: Incucyte cell proliferation and caspase activity, MCF-7 (FIG. 10, 17). The settings on record: MCF-7 p53 WT compared to MDA-MB157 p53 null cells; compared to 89. Format: cell-based. The method, then: 2,500-5,000 cells were seeded in 1-well of a 96-well plate (Corning; 3904). The following day, the media was changed from normal (10%) to low serum (0.5%) containing vehicle (DMSO) or compounds. 16-24 h later FBS was added to each well to bring serum levels back to normal (10%). Cells were then allowed to grow for 2 days. All treatments were done in triplicate. The day after cells were seeded, the media was changed to low serum media containing 2 μM CellEvent Caspase 3/7 reagent (Life Technologies; C10423) and compounds. The plates were placed in an IncuCyte (Essen Bioscience, Inc.) live cell imager and scanning was started 15-20 mins after. IncuCyte™ ZOOM facilitates live-cell monitoring via customized imaging protocols. Images were taken every 2 h for at least 3 days, using a 10× objective. Phase contrast was used to measure cell confluency/density while green fluorescence was used to measure caspase activity. The images were analyzed using IncuCyte software (Basic Analysis parameters) and a ratio of caspase activity to cell density was determined.

The subject of test [2] is p53 and p21 in p53 wild-type breast cancer and osteosarcoma cells. Description: Western blot of p53 and p21 in breast cancer, osteosarcoma and normal cells (FIG. 12A). The conditions noted are these: 15 μM, <24 h, low serum; p53 wild-type breast cancer and osteosarcoma cells but not normal cells. Format: cell-based. The method, then:
In 24-well plates, 0.10-0.15×10^6 (adherent) or 0.5×10^6 (suspension) cells were treated with 15 μM or 2.5 μM compounds, respectively, for 24 h in low serum prior to lysis for Western Blot analysis.

For test [3], the target named is T1, USP7, full-length, native C-Terminus (Homo sapiens, UniProt Q93009).
T1 construct: USP7, full-length, native C-Terminus, 0.2 nM
Description: Biochemical USP7 assay with Ubiquitin-Rho110 substrate, compounds pre-incubated with USP7 (USP7_Ub-Rho preInc). The settings on record: compounds pre-mixed with USP7, 1 hour incubation, before substrate; read-out: USP7 Ub-Rho preInc (IC50). In a few lines:
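Full-length USP7 (0.2 nM) cleaving Ubiquitin-Rho110 (1 uM) in pH 7.5 Tris buffer with DTT, 1 h at room temperature, acetic-acid quenched; Rho110 fluorescence at 485/535 nm. Pre-incubation variant: compound and USP7 mixed 1 h before substrate addition. IC50 from % inhibition versus no-enzyme and uninhibited controls.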

The target in another test is T2, USP5 (Homo sapiens, UniProt P45974).
T2 sequence (P45974 1-858): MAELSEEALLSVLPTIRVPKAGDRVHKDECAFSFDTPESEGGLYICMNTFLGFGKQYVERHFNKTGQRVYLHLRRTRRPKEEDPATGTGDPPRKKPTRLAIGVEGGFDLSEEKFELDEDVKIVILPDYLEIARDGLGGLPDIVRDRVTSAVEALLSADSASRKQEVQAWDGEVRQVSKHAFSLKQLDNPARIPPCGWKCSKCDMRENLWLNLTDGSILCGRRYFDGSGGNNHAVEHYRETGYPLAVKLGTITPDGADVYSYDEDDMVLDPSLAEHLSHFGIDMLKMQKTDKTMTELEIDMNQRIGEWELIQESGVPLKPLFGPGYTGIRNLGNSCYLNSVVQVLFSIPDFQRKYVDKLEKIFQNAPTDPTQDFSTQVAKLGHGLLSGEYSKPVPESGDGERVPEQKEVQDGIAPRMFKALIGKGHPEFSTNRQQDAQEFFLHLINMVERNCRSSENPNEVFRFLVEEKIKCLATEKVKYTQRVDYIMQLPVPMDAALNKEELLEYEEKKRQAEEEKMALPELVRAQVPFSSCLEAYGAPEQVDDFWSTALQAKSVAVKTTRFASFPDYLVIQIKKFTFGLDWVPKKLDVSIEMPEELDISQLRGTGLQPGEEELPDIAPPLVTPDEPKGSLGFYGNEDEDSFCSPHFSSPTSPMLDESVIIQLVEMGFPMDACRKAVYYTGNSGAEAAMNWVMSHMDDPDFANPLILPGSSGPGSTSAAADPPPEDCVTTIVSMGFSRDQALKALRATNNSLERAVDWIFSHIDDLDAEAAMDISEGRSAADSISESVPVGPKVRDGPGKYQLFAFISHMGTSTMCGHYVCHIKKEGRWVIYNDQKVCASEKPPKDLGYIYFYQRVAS
In words: Ub-Rho110 DUB assay, Table 2, USP5.

T1 sequence (Q93009 whole entry): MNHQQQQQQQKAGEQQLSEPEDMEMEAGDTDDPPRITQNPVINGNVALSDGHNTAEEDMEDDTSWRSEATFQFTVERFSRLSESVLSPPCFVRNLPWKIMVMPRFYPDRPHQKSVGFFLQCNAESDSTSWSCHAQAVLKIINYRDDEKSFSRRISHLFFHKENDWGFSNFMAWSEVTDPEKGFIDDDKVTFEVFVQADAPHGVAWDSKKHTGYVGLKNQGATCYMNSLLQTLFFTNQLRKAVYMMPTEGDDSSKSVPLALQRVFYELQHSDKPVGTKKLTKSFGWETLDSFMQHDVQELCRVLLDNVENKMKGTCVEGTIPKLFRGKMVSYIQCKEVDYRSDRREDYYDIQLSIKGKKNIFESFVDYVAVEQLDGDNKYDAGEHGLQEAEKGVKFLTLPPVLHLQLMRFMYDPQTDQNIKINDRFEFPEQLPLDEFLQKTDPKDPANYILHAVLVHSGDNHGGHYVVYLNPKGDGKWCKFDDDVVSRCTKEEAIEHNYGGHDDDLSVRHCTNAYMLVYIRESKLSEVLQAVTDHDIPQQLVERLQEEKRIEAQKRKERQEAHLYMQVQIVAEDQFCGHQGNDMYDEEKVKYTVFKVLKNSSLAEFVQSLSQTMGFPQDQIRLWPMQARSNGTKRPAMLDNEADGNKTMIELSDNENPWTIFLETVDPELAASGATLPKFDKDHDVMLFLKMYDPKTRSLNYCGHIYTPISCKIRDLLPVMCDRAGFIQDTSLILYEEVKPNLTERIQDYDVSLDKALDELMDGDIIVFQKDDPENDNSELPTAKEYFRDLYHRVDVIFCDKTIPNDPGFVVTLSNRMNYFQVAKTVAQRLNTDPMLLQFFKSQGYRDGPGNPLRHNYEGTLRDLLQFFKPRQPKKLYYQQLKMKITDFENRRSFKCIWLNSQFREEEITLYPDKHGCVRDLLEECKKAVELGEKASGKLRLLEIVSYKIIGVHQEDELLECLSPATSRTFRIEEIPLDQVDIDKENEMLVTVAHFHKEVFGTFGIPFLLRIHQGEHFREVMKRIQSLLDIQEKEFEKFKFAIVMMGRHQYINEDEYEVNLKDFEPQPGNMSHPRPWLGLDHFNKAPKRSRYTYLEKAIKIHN

The term pIC50 denotes the IC50 on a negative log10 scale, so that one unit is a factor of ten. As to `CCc1c(-c2ccc3[nH]ncc3c2)cnc(N)c1-c1ccc(O)cc1` [Compound 88, 4-[2-amino-4-ethyl-5-(1H-indazol-5-yl)-3-pyridyl]phenol], the “cell viability (Incucyte proliferation and caspase activity)” value in test [1] is listed as “decreases cell viability”. Also, in test [2], the “p53 and p21 levels (western blot)” value is “increases p53 and p21 levels”. In addition, the pIC50 in test [3] is 5.68; on USP5, 4.73.
